From patent US10265346B2, “Trehalose-containing mammalian cell suspension for prevention of pulmonary embolism formation” (OTSUKA PHARMACEUTICAL FACTORY, INC., priority 2012, dated 2019)

Test: Preventive effect against pulmonary embolism formation (no method given)
Details: stated as demonstrated by the present inventors, no data given

Substance: dextran
- preventive effect against pulmonary embolism formation (in words): demonstrated to have a preventive effect against pulmonary embolism formation
